Assay results taken from a melting point compilation (Tetko et al.; mined from patent text by program, amines drawn as free bases though some values may be those of a salt).

melting point | Compound
220 to 221 °C | NS(=O)(=O)c1ccc(CCN2CC=C(c3c[nH]c(-c4ccc(F)cc4)c3-c3ccncc3)CC2)cc1
195 to 197 °C | CCOCc1nc2c(N)nc3ccccc3c2n1CC1(O)CCN(C(=O)OC(C)(C)C)CC1
214 to 216 °C | CS(=O)(=O)c1nc2ccccn2c1S(N)(=O)=O
104 to 105 °C | N#Cc1ccc2c(c1)NCc1ccccc1O2
120 to 123 °C | O=C(O)CCCCCCCCn1cc(-c2ccccc2)c(-c2ccccc2)nc1=O
126 to 128 °C | CSc1sc(S(C)(=O)=O)cc1C#N
264 to 266 °C | NC1=C2C(=Nc3ccccc3S2(=O)=O)c2ccccc2C1=O
250 to 253 °C | CN1CCN(C(=O)c2cc(-c3ccccc3)c(=O)[nH]c2-c2c(Cl)cccc2C#N)CC1
170 to 171 °C | CCOC(=O)c1c(Cn2cnnc2)nc2cc(OC)c(OC)cc2c1-c1ccc(OC)c(OC(C)C)c1
152 °C | N#CC(CCC(=O)O)(CC(=O)O)c1ccc(Cl)c(Cl)c1 (stereo unspecified)
46 °C | CON(C(=O)c1ccoc1C)C1CCCCC1
259 to 262 °C | Cc1cc(C)n(-c2nc(Nc3cccc(Cl)c3)c3ccccc3n2)n1
57 to 58 °C | C=CCSc1nc(-c2ccc(OC)cc2)c(-c2ccc(OC)cc2)s1
80 to 83 °C | O=S(=O)(Oc1ccc(Cl)c2cccnc12)C(F)(F)F
112 to 114 °C | CCC(CC)N1COCc2c1cc(C)nc2Oc1c(C)cc(C)cc1C
247 to 248 °C | c1ccc(N(c2ccccc2)c2ccc(-c3ccc(-c4ccnc(C5Cc6ccccc6N5)n4)cc3)cc2)cc1 (stereo unspecified)
66 to 68 °C | CCCCc1ccc(NC(=O)CN(C)C)c(N)c1
123 to 125 °C | N#CC(NC(=O)c1ccnc(Cl)c1)c1cccs1 (stereo unspecified)
291 to 293 °C | COc1cc(OC)c2c(=O)[nH]c(-c3cc(C)c(O)c(C)c3)nc2c1
114 to 116 °C | CC(c1ccncn1)C(O)(Cn1cncn1)c1ccc(F)cc1F (stereo unspecified)
154 to 157 °C | CCCCc1oc2ccccc2c1C(=O)NCc1ccc2c(Br)c(OCC#N)ccc2c1
66 to 67 °C | CC(=O)Nc1ccc(CCCOCCCCCCNCC(O)c2cc(Cl)c(N)c(Cl)c2)nc1 (stereo unspecified)
104 to 106 °C | CC(C)NC(=O)c1nc(-c2cccc(F)c2)c(-c2ccc(=O)n(C(C)C)n2)s1
187 °C | CCC(=O)OC(CC)c1nc2c(C(F)(F)F)cccc2c(O)c1C(=O)Nc1nccs1 (stereo unspecified)
68 to 70 °C | CCc1cc(C)c2c(n1)-c1ccccc1C2=O

melting point | Compound
176 to 178 °C | COc1c(F)cc2[nH]c(C)c(CC(=O)O)c2c1F
182 to 184 °C | O=C(Nc1ccc(Oc2ccnc(N3CCC(O)CC3)n2)c2ccccc12)c1cc(F)cc(N2CCCCC2)c1
158 °C | N#Cc1c(N2CCN(C(=O)c3cccs3)CC2)c2cc(Cl)cnc2[nH]c1=O
181 to 184 °C | COc1ccc(-n2nc(Sc3cc(OC)cc(OC)c3)c(C)c(C#N)c2=O)cc1
59 °C | CCCC(O)(CC)C(C)=NO (stereo unspecified)
255 to 256 °C | CS(=O)C1C=Nc2cc(Br)ccc2C1=O (stereo unspecified)
148 to 149 °C | CC(=O)N1CCN(c2ccn3nc(-c4ccccc4)c(-c4ccc(=O)n(C(C)C)n4)c3c2)CC1
197 to 199 °C | CCCNC(=O)C1c2ccccc2-c2ccccc21
140 °C | Cc1ccc(C(=O)O)c2c1CCCO2
187 °C | CC(=O)OC/C(=C(\C(=O)O)c1ccc(F)cc1)c1ccc(S(C)(=O)=O)cc1
50 to 51 °C | CCCN(C(=O)C=C(C)C)c1cccc(Br)c1
203 to 204 °C | Cn1cnc(S(=O)(=O)NCCc2ccc(OCC(=O)O)cc2)c1
88 °C | C=CCN1C(=S)N(c2cccc(Oc3ccccc3)c2)C(=O)C1C (stereo unspecified)
147 to 149 °C | O=C(c1ccccn1)c1cc(Br)ccc1-n1cnnc1CCl
139 to 141 °C | CCN(CC)CCCCNc1ncc2c(n1)N(C1CC1)C(=O)N(c1c(F)c(OC)cc(OC)c1F)C2
220 °C | O=C(CCCCl)Nc1n[nH]c2cc(Cl)ccc12
55 °C | OCc1ccccc1-c1noc2ccccc12
145 to 147 °C | COc1ccc2c(c1)OCC1CN(C(=O)c3cccnc3)N=C21 (stereo unspecified)
158 °C | COc1ccc(CN(C)CCc2ccc(NC(=O)c3cccc4c(=O)c5c(OC)c(OC)c(OC)cc5[nH]c34)cc2)cc1OC
136 to 138 °C | CCc1nnc(Cc2c(Cl)cncc2Cl)c2ccc(OC)cc12
169 to 172 °C | COc1ccc(Sc2ccc([N+](=O)[O-])cc2[N+](=O)[O-])c(N)c1
> 300 °C | Cc1nc(Nc2nc3ccc([N+](=O)[O-])cc3[nH]2)nc(O)c1CC(=O)O
195 to 196 °C | COc1ccc(C(=O)c2c(N)sc3c2CN(C(=O)OCc2ccccc2)C3)cc1OC
203 to 205 °C | N#Cc1ccc(OCc2ccnnc2)cc1OC(C(=O)O)c1ccccc1Cl (racemic)
210 to 215 °C | Cc1nc(NCC(C)C)sc1C(=O)c1ccc(N)c([N+](=O)[O-])c1

melting point | Compound
126 °C | CCC(=O)OCC(=O)C1(OC(=O)CC)CCC2C3CC(C)C4=CC(=O)C=CC4(C)C3C(O)CC21C (stereo unspecified)
300 °C | CN(C)C=Nc1nc(Cl)c2[nH]cnc2n1
158 to 160 °C | CN(C)C(=O)N1CCC(Oc2ccc(C(F)(F)F)cc2)(c2ccccc2)CC1
215 to 216 °C | COc1ccc(-c2c(NCC(C)c3ccccc3)c(=O)c2=O)cc1 (stereo unspecified)
99 to 100 °C | Nc1cc(C(=O)c2ccccc2)ccc1N1CCCCC1
78 to 80 °C | O=C(NCCCCCCOC(=O)Oc1ccc([N+](=O)[O-])cc1)OC1CCN(C(=O)OCc2ccccc2)CC1
158 to 160 °C | Cc1ncnc(N)c1C=O
58 to 60 °C | c1cc(CN2CCOCC2)c(CN2CCOCC2)s1
146 to 148 °C | CCOC(=O)c1sc2nc(CBr)c(CC)c(=O)n2c1C
131 to 132 °C | COC(=O)C(CCSC)N(C(=O)OC(C)(C)C)C(=O)c1ccc(N)c2ccccc12 (stereo unspecified)
122 to 123 °C | Cc1ccc2ccc(=O)oc2c1C
195 to 197 °C | O=C(Nc1ccccc1F)Nc1cc(Cl)ccc1C(=O)O
191 °C | CCOC(=O)C1=C(N)NC(N)=C(C(=O)OCC)C1c1cccc(C(=O)OCC)c1
109 to 110 °C | CCOC(=O)/C=C/c1ccc(OCc2nc(-c3ccccc3)oc2C)nc1
110 to 112 °C | O=S(=O)(c1ccccc1)C(CCCCl)c1ccccc1 (stereo unspecified)
183 to 186 °C | C[C@@H]1c2onc(-c3ccc(Cl)cc3)c2CC[C@H]1C(=O)O (relative stereo)
122 to 126 °C | CN1C[C@]2(C)CC[C@](NCC(=O)N3C[C@@H](F)C[C@H]3C#N)(C1)C2(C)C
154 to 157 °C | CN(C)Cc1c(-c2ccc(OC(F)F)c(OC3CC3)c2)[nH]c2cn[nH]c(=O)c12
235 to 237 °C | O=c1cc(CO)n2c(n1)COc1ccccc1-2
207 to 208 °C | CC1(C)OC(=O)Nc2ccc(-c3cc(F)cc(C(F)(F)F)c3)cc21
98 to 100 °C | CCCCCCCCCCCCOc1ccc(C(=O)O)c(O)c1
100 °C | O=C1[C@H](O)[C@@H](O)C(=O)N1Cc1ccccc1
57 to 59 °C | CCOC(=O)c1ccc(-c2ccc(C=O)cc2)cc1
231 to 233 °C | COC(=O)Nc1nc2cc(S(=O)CC3(C)CC3(Cl)Cl)ccc2[nH]1 (stereo unspecified)
98 to 100 °C | CCOC(=O)c1cnc(-c2ccccc2)nc1Nc1ccccc1

melting point | Compound
68 to 70 °C | CCCCCCCCCCCCNC(=O)n1nc(Oc2ncc(C(F)(F)F)cc2Cl)c(Cl)c1C
197 to 198 °C | CC(C)C(=O)Nc1c(OCc2ccccc2)cc(Br)cc1[N+](=O)[O-]
168 to 169 °C | O=S(=O)(NCCc1ccc(Cc2nnn[nH]2)cc1)c1ccc(Cl)cc1
166 to 167 °C | O=C(O)CCc1cn(Cc2ccc(OCc3noc(-c4ccccc4)n3)cc2)nc1-c1ccccc1
74 to 76 °C | CN(C)Cc1ccc(CSCCN=CNC#N)o1
274 to 276 °C | O=C1C2=C(CCCC2)C(=O)N1c1ccc2c(c1)NC(=O)C21CC1
95 to 96 °C | CCCCCCCCCCCCCCCCOc1cc(NS(=O)(=O)c2cc([N+](=O)[O-])ccc2N2CCOCC2)c(OC(C)=O)cc1C
171 to 172 °C | N#Cc1ccc(OCc2ccncc2)cc1OC(C(=O)O)c1ccccc1Br (racemic)
232 to 234 °C | NC(=O)c1sc2nccc(N3CCOCC3)c2c1N
116 to 118 °C | CSc1ccc(-c2cc(-n3ccc(C(F)(F)F)n3)c3ccccc3n2)cc1
245 to 247 °C | O=C1CCC(N2C(=O)c3cccc(NC(=O)c4cccc([N+](=O)[O-])c4)c3C2=O)C(=O)N1 (stereo unspecified)
233 to 236 °C | Clc1ccc(Nc2nnc(NCc3ccncc3)c3ccccc23)cc1
72.8 °C | CCCC(=O)NN=C(C)C1CCC=C(C)O1 (stereo unspecified)
68 to 71 °C | CCCCc1ccc(CCCCC(COC(C)=O)(COC(C)=O)NC(C)=O)cc1
103 to 104 °C | CCCOc1cc(-n2c(=O)cc(C(F)(F)F)n(C)c2=O)c(F)cc1Cl
133 to 135 °C | O=C(c1cccs1)c1cnn2c(-c3cccc(NCc4cccc(Cl)c4)c3)ccnc12
189 to 191 °C | FC(F)(F)c1ccc(Cl)cc1CN1CCNc2ncc(I)cc21
173 to 175 °C | CN1CNC(=S)N(c2ccc(F)cc2)C1
146 to 148 °C | CCOc1nc(O)cc(OC)n1
146 to 148 °C | CCCCCCCNC(=O)Nc1ccccc1C(=O)NCC1CCN(C(c2ccccc2)c2ccccc2)CC1
62 to 65 °C | N#Cc1ccc(Nc2nc(NCc3ccco3)nc(Nc3ccc(O)cc3)n2)cc1
202 to 205 °C | COc1ccc(C)cc1NC(=O)Nc1ccc(C2CCN(C(=O)Nc3cc(OCCO)ccc3Cl)CC2)cc1
167 to 172 °C | CCCCn1c(S)nc2ccccc2c1=O

Compound | melting point
NCC(CC(=O)O)C1CCCC1 (stereo unspecified) | 178 to 180 °C
CN1Cc2c(-c3noc(CN4CC=CC4)n3)ncn2-c2ccccc2C1=O | 215 to 220 °C
ON=Cc1c[nH]c2cccc(OCc3ccccc3)c12 | 206 to 210 °C
